Measured values from patent US8710183B2, “Inhibitors of bacterial tyrosine kinase and uses thereof” (Centre National de la Recherche Scientifique (C.N.R.S.), priority 2008, dated 2014).
Where no end group is shown, it is not given here.

Tests used:
BY-kinase A1B2 = assay: Procedure 1: inhibition of A1B2 autokinase activity (radioactivity incorporated in A1B2); format: biochemical, Staphylococcus aureus; design: ActivitY (inhibition): concentration or dose not given beside the values; conditions: for % of inhibition of A1B2 autokinase activity / Radioactivity incorporated in A1B2: A1B2 50 pmole
Protocol: 50 pmole of the purified BY-kinase (or the dephosphorylated BY-kinase) are incubated for 15 min to 1 hour in the presence of 50 pmole of the drug in a final volume of 20 microliters. The ratio BY-kinase/drug varies from 1/1 to 1/100. The reaction is performed in a buffer specific of each BY-kinase (pH condition, salt concentrations, etc.). The incubation is then continued for 30″ to 1 h in the presence of 5 microCurie of radioactive ATP (^32P or ^33P) labeled on g-P (specific activity 3000 Ci/mmole) and 50 microMolar non-radioactive ATP. The reaction is stopped by adding 5 microliter of gel-electrophoresis loading buffer 5 fold concentrate and heating 5 min at 100° C.
(§1) The procedure was applied for A1B2 [34] and CapO [20] Each Gene has been cloned in the pQE30 vector (Qiagen) to allow fusion of a histidines-tag fused to the N-terminal end of either A1B2 or CapO. This overproducing plasmid has been transformed in the Escherichia coli XL 1-blue strain. Cells have been incubated at 37° C. under shaking until A600 reached 0.5. IPTG was then added at a final concentration of 0.5 mM, and growth was continued for 3 h at 37° C. under shaking. Cells were harvested by centrifugation at 3000×g for 10 min, washed in buffer A (Tris-HCl 50 mM pH7.5, Nacl 200 mM, glycerol 10%, imidazole 10 mM) containing DNase I and RNase A at a final concentration of […] each, lysozyme 1 mg/ml, and protease inhibitors cocktail. Cells were disrupted by sonication. The resulting suspension was centrifuged at 4° C. for 30 min at 30,000×g. The supernatant was incubated with Ni-NTA matrix (Qiagen), suitable for purification of 6 histidines fusion proteins, for 30 min at 4° C. under gentle shaking. The protein-resin complex was packed into a column for washing and elution steps. The column was washed with buffer B (Tris-HCl 50 mM pH7.5, Nacl 200 mM, glycerol 10%, imidazole 20 mM). Protein elution was carried out with buffer C (Tris-HCl 50 mM pH7.5, NaCl 200 mM, glycerol 10%, imidazole 150 mM). Eluted fractions were collected, analyzed by SDS-PAGE. Appropriated fractions are pooled and dialyzed overnight against buffer D (Tris-HCl 50 mM, pH7.5, NaCl 100 mM, DTT 1 mM, MgCl2 1 mM, glycerol 20%) and used for inhibitory tests or stored at +4° C., −20° C., or −80° C.
According to procedure 1, 50 pmole of A1B2 were incubated with either, 0 pmole, 50 pmole, or 500 pmole, or 5 nmol of BYK001 for 15 min at 37° C. in a final volume of […]. Then, incubation was continued for 30″, or 1′, or 2′ or 5′ in the presence of […] of [g-^32P] ATP (specific activity 3000 Ci/mmole). The amount of radioactivity incorporated in A1B2 was determined by fluid scintillation counting after gel-electophoresis. The percentage of inhibition of A1B2 autokinase activity is expressed relatively to the radioactivity incorporated in A1B2 when incubated without BYK001.

[1] = test system: BY-kinase A1B2 (substrate CapO); assay: Procedure 2: inhibition of CapO phosphorylation by A1B2 (radioactivity incorporated in CapO); format: biochemical, Staphylococcus aureus; conditions: A1B2 50 pmol, CapO 50 pmole
Protocol: The procedure 2 is based on procedure 1, except that 5 pmole to 100 pmole of the protein substrate are also added either in the same time as the drug or concomitant with the radioactive ATP and the non-radioactive ATP.
as §1
According to procedure 2, 50 pmol of A1B2 and 50 pmole of a substrate of A1B2, namely the protein CapO, were incubated with either 50 pmole, or 500 pmole, or 5 nmol of BYK001 for 15 min at 37° C. in a final volume of […]. Then, incubation was continued for 30″, or 1′, or 2′ or 5′ in the presence of […] of [g-^32P] ATP (specific activity 3000 Ci/mmole). The amount of radioactivity incorporated in CapO was determined by fluid scintillation counting after gel-electophoresis. The percentage of inhibition of CapO phosphorylation by A1B2 is expressed relatively to CapO radioactivity when incubation was performed without BYK001.

[2] = BYK001 50 pmole, incubation time 0.5 min
[3] = BYK001 50 pmole, incubation time 1 min
[4] = BYK001 50 pmole, incubation time 2 min
[5] = BYK001 50 pmole, incubation time 5 min
[6] = BYK001 500 pmole, incubation time 0.5 min
[7] = BYK001 500 pmole, incubation time 1 min
[8] = BYK001 500 pmole, incubation time 2 min
[9] = BYK001 500 pmole, incubation time 5 min
[10] = BYK001 5000 pmole, incubation time 0.5 min
[11] = BYK001 5000 pmole, incubation time 1 min
[12] = BYK001 5000 pmole, incubation time 2 min
[13] = BYK001 5000 pmole, incubation time 5 min

BYK001: peptide with adenine PNA on lysine side chain: S-A-S-Y-Y-A-Y-K(PNA)-G-T-D; native S. aureus tyrosine cluster sequence (SASYYAYK(adenine PNA)GTD)
% of inhibition of A1B2 autokinase activity (BY-kinase A1B2; [2]): 17.54% | Radioactivity incorporated in A1B2 (BY-kinase A1B2; [2]): 29233 cpm | % of inhibition of A1B2 autokinase activity (BY-kinase A1B2; [3]): 16.10% | Radioactivity incorporated in A1B2 (BY-kinase A1B2; [3]): 71683 cpm | % of inhibition of A1B2 autokinase activity (BY-kinase A1B2; [4]): 16.63% | Radioactivity incorporated in A1B2 (BY-kinase A1B2; [4]): 132537 cpm | % of inhibition of A1B2 autokinase activity (BY-kinase A1B2; [5]): 14.68% | Radioactivity incorporated in A1B2 (BY-kinase A1B2; [5]): 325711 cpm | % of inhibition of A1B2 autokinase activity (BY-kinase A1B2; [6]): 13.31% | Radioactivity incorporated in A1B2 (BY-kinase A1B2; [6]): 30734 cpm | % of inhibition of A1B2 autokinase activity (BY-kinase A1B2; [7]): 15.17% | Radioactivity incorporated in A1B2 (BY-kinase A1B2; [7]): 72475 cpm | % of inhibition of A1B2 autokinase activity (BY-kinase A1B2; [8]): 15.95% | Radioactivity incorporated in A1B2 (BY-kinase A1B2; [8]): 133624 cpm | % of inhibition of A1B2 autokinase activity (BY-kinase A1B2; [9]): 14.87% | Radioactivity incorporated in A1B2 (BY-kinase A1B2; [9]): 324983 cpm | % of inhibition of A1B2 autokinase activity (BY-kinase A1B2; [10]): 15.67% | Radioactivity incorporated in A1B2 (BY-kinase A1B2; [10]): 29899 cpm | % of inhibition of A1B2 autokinase activity (BY-kinase A1B2; [11]): 15.11% | Radioactivity incorporated in A1B2 (BY-kinase A1B2; [11]): 72528 cpm | % of inhibition of A1B2 autokinase activity (BY-kinase A1B2; [12]): 11.30% | Radioactivity incorporated in A1B2 (BY-kinase A1B2; [12]): 141005 cpm | % of inhibition of A1B2 autokinase activity (BY-kinase A1B2; [13]): 15.20% | Radioactivity incorporated in A1B2 (BY-kinase A1B2; [13]): 323749 cpm | ActivitY (inhibition) (BY-kinase A1B2; Table 5, inhibition of BY-kinase A1B2): 15.00% | inhibitory effect on BY-kinase A1B2 (BY-kinase A1B2; conclusion from procedures 1 and 2): inhibitory effect | inhibition (BY-kinase A1B2; summary): around 15% | % of inhibition of CapO phosphorylation by A1B2 [1, 2]: 10.05% | Radioactivity incorporated in CapO [1, 2]: 3555 cpm | % of inhibition of CapO phosphorylation by A1B2 [1, 3]: 9.33% | Radioactivity incorporated in CapO [1, 3]: 6388 cpm | % of inhibition of CapO phosphorylation by A1B2 [1, 4]: 10.69% | Radioactivity incorporated in CapO [1, 4]: 15498 cpm | % of inhibition of CapO phosphorylation by A1B2 [1, 5]: 8.11% | Radioactivity incorporated in CapO [1, 5]: 31901 cpm | % of inhibition of CapO phosphorylation by A1B2 [1, 6]: 11.51% | Radioactivity incorporated in CapO [1, 6]: 3497 cpm | % of inhibition of CapO phosphorylation by A1B2 [1, 7]: 10.55% | Radioactivity incorporated in CapO [1, 7]: 6302 cpm | % of inhibition of CapO phosphorylation by A1B2 [1, 8]: 10.40% | Radioactivity incorporated in CapO [1, 8]: 15549 cpm | % of inhibition of CapO phosphorylation by A1B2 [1, 9]: 9.99% | Radioactivity incorporated in CapO [1, 9]: 31251 cpm | % of inhibition of CapO phosphorylation by A1B2 [1, 10]: 11.11% | Radioactivity incorporated in CapO [1, 10]: 3513 cpm | % of inhibition of CapO phosphorylation by A1B2 [1, 11]: 10.36% | Radioactivity incorporated in CapO [1, 11]: 6315 cpm | % of inhibition of CapO phosphorylation by A1B2 [1, 12]: 10.85% | Radioactivity incorporated in CapO [1, 12]: 15471 cpm | % of inhibition of CapO phosphorylation by A1B2 [1, 13]: 10.78% | Radioactivity incorporated in CapO [1, 13]: 30974 cpm
